According to the supplement of paper PMC10307832:

Key:
Assay in all cases: relative viability (nuclei count vs DMSO), 5 days (fraction); higher = more cells survive
NCI-H2023 = system: NCI-H2023
In short: (§1)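 Values are medians from duplicate plates. Each reflects relative viability, defined as the nuclei count of treated wells over that of vehicle wells. Lung cancer cell lines in 1536-well plates were pin-tool dosed one day after seeding with one drug alone or with a fixed anchor-drug dose plus five library-drug doses (not always all listed) in √10 steps, then fixed, stained and imaged at 4× after 5 days.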

NCI-H2342 = system: NCI-H2342
In short: as §1

NCI-H2347 = system: NCI-H2347
In short: as §1

NCI-H322M = system: NCI-H322M
In short: as §1

NCI-H358 = system: NCI-H358
In short: as §1

NCI-H441 = system: NCI-H441
In short: as §1

NCI-H522 = system: NCI-H522
In short: as §1

NCI-H647 = system: NCI-H647
In short: as §1

NCI-H838 = system: NCI-H838
In short: as §1

RERF-LC-KJ = system: RERF-LC-KJ
In short: as §1

SW 1573 = system: SW 1573
In short: as §1

UMC-11 = system: UMC-11
In short: as §1

SMILES: Cc1cn(-c2cc(NC(=O)c3ccc(C)c(Nc4nccc(-c5cccnc5)n4)c3)cc(C(F)(F)F)c2)cn1 [Nilotinib] + O=C(c1cc(Cc2n[nH]c(=O)c3ccccc23)ccc1F)N1CCN(C(=O)C2CC2)CC1 [Olaparib] (partner 8 µM)
- relative viability (NCI-H2023; first compound 0.01 µM): 0.599
- relative viability (NCI-H2023; first compound 0.03162 µM): 0.361
- relative viability (NCI-H2023; first compound 0.1 µM): 0.394
- relative viability (NCI-H2342; first compound 0.001 µM): 0.399
- relative viability (NCI-H2342; first compound 0.003162 µM): 0.457
- relative viability (NCI-H2342; first compound 0.01 µM): 0.464
- relative viability (NCI-H2342; first compound 0.03162 µM): 0.338
- relative viability (NCI-H2342; first compound 0.1 µM): 0.418
- relative viability (NCI-H2347; first compound 0.001 µM): 0.559
- relative viability (NCI-H2347; first compound 0.003162 µM): 0.664
- relative viability (NCI-H2347; first compound 0.01 µM): 0.633
- relative viability (NCI-H2347; first compound 0.03162 µM): 0.57
- relative viability (NCI-H2347; first compound 0.1 µM): 0.493
- relative viability (NCI-H322M; first compound 0.001 µM): 0.737
- relative viability (NCI-H322M; first compound 0.003162 µM): 0.712
- relative viability (NCI-H322M; first compound 0.01 µM): 0.678
- relative viability (NCI-H322M; first compound 0.03162 µM): 0.556
- relative viability (NCI-H322M; first compound 0.1 µM): 0.818
- relative viability (NCI-H358; first compound 0.001 µM): 0.546
- relative viability (NCI-H358; first compound 0.003162 µM): 0.721
- relative viability (NCI-H358; first compound 0.01 µM): 0.813
- relative viability (NCI-H358; first compound 0.03162 µM): 0.52
- relative viability (NCI-H358; first compound 0.1 µM): 0.539
- relative viability (NCI-H441; first compound 0.001 µM): 0.419
- relative viability (NCI-H441; first compound 0.003162 µM): 0.807
- relative viability (NCI-H441; first compound 0.01 µM): 0.533
- relative viability (NCI-H441; first compound 0.03162 µM): 0.431
- relative viability (NCI-H441; first compound 0.1 µM): 0.534
- relative viability (NCI-H522; first compound 0.01 µM): 0.66
- relative viability (NCI-H522; first compound 0.03162 µM): 0.625
- relative viability (NCI-H522; first compound 0.1 µM): 0.565
- relative viability (NCI-H647; first compound 0.001 µM): 0.527
- relative viability (NCI-H647; first compound 0.003162 µM): 0.735
- relative viability (NCI-H647; first compound 0.01 µM): 0.649
- relative viability (NCI-H647; first compound 0.03162 µM): 0.482
- relative viability (NCI-H647; first compound 0.1 µM): 0.544
- relative viability (NCI-H838; first compound 0.001 µM): 0.789
- relative viability (NCI-H838; first compound 0.003162 µM): 1.01
- relative viability (NCI-H838; first compound 0.01 µM): 0.878
- relative viability (NCI-H838; first compound 0.03162 µM): 0.838
- relative viability (NCI-H838; first compound 0.1 µM): 0.759
- relative viability (RERF-LC-KJ; first compound 0.001 µM): 0.816
- relative viability (RERF-LC-KJ; first compound 0.003162 µM): 1.03
- relative viability (RERF-LC-KJ; first compound 0.01 µM): 0.976
- relative viability (RERF-LC-KJ; first compound 0.03162 µM): 0.826
- relative viability (RERF-LC-KJ; first compound 0.1 µM): 0.892
- relative viability (SW 1573; first compound 0.001 µM): 0.494
- relative viability (SW 1573; first compound 0.003162 µM): 0.614
- relative viability (SW 1573; first compound 0.01 µM): 0.662
- relative viability (SW 1573; first compound 0.03162 µM): 0.364
- relative viability (SW 1573; first compound 0.1 µM): 0.423
- relative viability (UMC-11; first compound 0.001 µM): 0.39
- relative viability (UMC-11; first compound 0.003162 µM): 0.384
- relative viability (UMC-11; first compound 0.01 µM): 0.337
- relative viability (UMC-11; first compound 0.03162 µM): 0.341
- relative viability (UMC-11; first compound 0.1 µM): 0.279
